Laboratory results: ChEMBL document CHEMBL4014279, “Synthesis of novel pyrazolo[3,4-b]quinolinyl acetamide analogs, their evaluation for antimicrobial and anticancer activities, validation by molecular modeling and CoMFA analysis” (Eur J Med Chem, 2017)
In brackets after ≈: the same amount, converted by molar mass.

Legend:
Staphylococcus aureus [1] = experiment: Antibacterial activity against Staphylococcus aureus MTCC 96 after 24 hrs by well diffusion method; type: functional; conditions: MTCC 96, 24 h
Bacillus subtilis = experiment: Antibacterial activity against Bacillus subtilis MTCC 121 after 24 hrs by well diffusion method; type: functional; conditions: MTCC 121, 24 h
Staphylococcus aureus [2] = experiment: Antibacterial activity against Staphylococcus aureus MLS16 MTCC 2940 after 24 hrs by well diffusion method; type: functional; conditions: MLS16 MTCC 2940, 24 h
Micrococcus luteus = experiment: Antibacterial activity against Micrococcus luteus MTCC 2470 after 24 hrs by well diffusion method; type: functional; conditions: MTCC 2470, 24 h
Raoultella planticola = experiment: Antibacterial activity against Klebsiella planticola MTCC 530 after 24 hrs by well diffusion method; type: functional; conditions: MTCC 530, 24 h
Escherichia coli = experiment: Antibacterial activity against Escherichia coli MTCC 739 after 24 hrs by well diffusion method; type: functional; conditions: MTCC 739, 24 h
Pseudomonas aeruginosa = experiment: Antibacterial activity against Pseudomonas aeruginosa MTCC 2453 after 24 hrs by well diffusion method; type: functional; conditions: MTCC 2453, 24 h
HeLa = experiment: Cytotoxicity against human HeLa cells after 24 hrs by MTT assay; type: functional, cell-based
HepG2 = experiment: Cytotoxicity against human HepG2 cells after 24 hrs by MTT assay; type: functional, cell-based; conditions: HepG2, 24 h
A549 = experiment: Cytotoxicity against human A549 cells after 24 hrs by MTT assay; type: functional, cell-based; conditions: A549, 24 h
COLO 205 = experiment: Cytotoxicity against human COLO205 cells after 24 hrs by MTT assay; type: functional, cell-based; conditions: COLO 205, 24 h

| SMILES | MIC (Staphylococcus aureus [1]) [µg/mL] | MIC (Bacillus subtilis) [µg/mL] | MIC (Staphylococcus aureus [2]) [µg/mL] | MIC (Micrococcus luteus) [µg/mL] | MIC (Raoultella planticola) [µg/mL] | MIC (Escherichia coli) [µg/mL] | MIC (Pseudomonas aeruginosa) [µg/mL] | IC50 (HeLa) [µM] | IC50 (HepG2) [µM] | IC50 (A549) [µM] | IC50 (COLO 205) [µM] |
| --- | --- | --- | --- | --- | --- | --- | --- | --- | --- | --- | --- |
| COc1ccc(NC(=O)Cn2nc(C)c3c(C)c4ccccc4nc32)cc1 | 7.8 to 125 (≈ 21.6 to 347 µM) | 7.8 to 125 (≈ 21.6 to 347 µM) | 7.8 to 125 (≈ 21.6 to 347 µM) | 7.8 to 125 (≈ 21.6 to 347 µM) | 7.8 to 125 (≈ 21.6 to 347 µM) | 7.8 to 125 (≈ 21.6 to 347 µM) | 7.8 to 125 (≈ 21.6 to 347 µM) | 20.4 | 22.2 | 25.6 | 18.9 |
| Cc1nn(CC(=O)NC2CC2)c2nc3ccccc3c(C)c12 | 7.8 to 125 (≈ 26.5 to 425 µM) | 7.8 to 125 (≈ 26.5 to 425 µM) | 7.8 to 125 (≈ 26.5 to 425 µM) | 7.8 to 125 (≈ 26.5 to 425 µM) | 7.8 to 125 (≈ 26.5 to 425 µM) | 7.8 to 125 (≈ 26.5 to 425 µM) | 7.8 to 125 (≈ 26.5 to 425 µM) | 16.7 | 15.2 | 14.3 | 11.9 |
| CCCNC(=O)Cn1nc(C(F)(F)F)c2c(-c3ccccc3)c3ccccc3nc21 | 7.8 to 125 (≈ 18.9 to 303 µM) | 7.8 to 125 (≈ 18.9 to 303 µM) | 7.8 to 125 (≈ 18.9 to 303 µM) | 7.8 to 125 (≈ 18.9 to 303 µM) | 7.8 to 125 (≈ 18.9 to 303 µM) | 7.8 to 125 (≈ 18.9 to 303 µM) | 7.8 to 125 (≈ 18.9 to 303 µM) | 23.7 | 23.4 | 25.6 | 22.1 |
| O=C(Cn1nc(C(F)(F)F)c2c(-c3ccccc3)c3ccccc3nc21)N1CCCC1 | 7.8 to 125 (≈ 18.4 to 295 µM) | 7.8 to 125 (≈ 18.4 to 295 µM) | 7.8 to 125 (≈ 18.4 to 295 µM) | 7.8 to 125 (≈ 18.4 to 295 µM) | 7.8 to 125 (≈ 18.4 to 295 µM) | 7.8 to 125 (≈ 18.4 to 295 µM) | 7.8 to 125 (≈ 18.4 to 295 µM) | 29.6 | 33.3 | 22.5 | 25.8 |
| Cc1nn(CC(=O)Nc2ccc([N+](=O)[O-])cc2)c2nc3ccccc3c(C)c12 | 7.8 to 125 (≈ 20.8 to 333 µM) | 7.8 to 125 (≈ 20.8 to 333 µM) | 7.8 to 125 (≈ 20.8 to 333 µM) | 7.8 to 125 (≈ 20.8 to 333 µM) | 7.8 to 125 (≈ 20.8 to 333 µM) | 7.8 to 125 (≈ 20.8 to 333 µM) | 7.8 to 125 (≈ 20.8 to 333 µM) | 18.5 | 17.2 | 15.9 | 20.1 |
| O=c1[nH]cc(F)c(=O)[nH]1 [FLUOROURACIL] |  |  |  |  |  |  |  | 1.4 | 1.4 | 1.2 | 1.9 |
| Cc1c2ccccc2nc2c1c(C(F)(F)F)nn2CC(=O)NCc1ccco1 | 7.8 to 125 (≈ 20.1 to 322 µM) | 7.8 to 125 (≈ 20.1 to 322 µM) | 7.8 to 125 (≈ 20.1 to 322 µM) | 7.8 to 125 (≈ 20.1 to 322 µM) | 7.8 to 125 (≈ 20.1 to 322 µM) | 7.8 to 125 (≈ 20.1 to 322 µM) | 7.8 to 125 (≈ 20.1 to 322 µM) | 32.8 | 48.2 | 33.9 | 29.8 |
| CNC(=O)Cn1nc(C(F)(F)F)c2c(-c3ccccc3)c3ccccc3nc21 | 7.8 to 125 (≈ 20.3 to 325 µM) | 7.8 to 125 (≈ 20.3 to 325 µM) | 7.8 to 125 (≈ 20.3 to 325 µM) | 7.8 to 125 (≈ 20.3 to 325 µM) | 7.8 to 125 (≈ 20.3 to 325 µM) | 7.8 to 125 (≈ 20.3 to 325 µM) | 7.8 to 125 (≈ 20.3 to 325 µM) | 23.5 | 22.5 | 21.4 | 19.8 |
| Cc1c2ccccc2nc2c1c(C(F)(F)F)nn2CC(=O)NC1CC1 | 7.8 to 125 (≈ 22.4 to 359 µM) | 7.8 to 125 (≈ 22.4 to 359 µM) | 7.8 to 125 (≈ 22.4 to 359 µM) | 7.8 to 125 (≈ 22.4 to 359 µM) | 7.8 to 125 (≈ 22.4 to 359 µM) | 7.8 to 125 (≈ 22.4 to 359 µM) | 7.8 to 125 (≈ 22.4 to 359 µM) | 21 | 18.6 | 19.2 | 22.7 |
| Cc1nn(CC(=O)NC2CCCCC2)c2nc3ccccc3c(C)c12 | 7.8 to 125 (≈ 23.2 to 372 µM) | 7.8 to 125 (≈ 23.2 to 372 µM) | 7.8 to 125 (≈ 23.2 to 372 µM) | 7.8 to 125 (≈ 23.2 to 372 µM) | 7.8 to 125 (≈ 23.2 to 372 µM) | 7.8 to 125 (≈ 23.2 to 372 µM) | 7.8 to 125 (≈ 23.2 to 372 µM) | 14.2 | 10.8 | 12.6 | 20.1 |
| CNC(=O)Cn1nc(C)c2c(C)c3ccccc3nc21 | > 125 | 62.5 (≈ 233 µM) | > 125 | 15.6 (≈ 58.1 µM) | > 125 | > 125 | > 125 | 18.1 | 17.9 | 20.2 | 16.3 |
| CCCCCCNC(=O)Cn1nc(C(F)(F)F)c2c(C)c3ccccc3nc21 | 7.8 to 125 (≈ 19.9 to 319 µM) | 7.8 to 125 (≈ 19.9 to 319 µM) | 7.8 to 125 (≈ 19.9 to 319 µM) | 7.8 to 125 (≈ 19.9 to 319 µM) | 7.8 to 125 (≈ 19.9 to 319 µM) | 7.8 to 125 (≈ 19.9 to 319 µM) | 7.8 to 125 (≈ 19.9 to 319 µM) | 21.7 | 19.6 | 20.5 | 22.2 |
| O=C(Cn1nc(C(F)(F)F)c2c(-c3ccccc3)c3ccccc3nc21)Nc1ccc([N+](=O)[O-])cc1 | 7.8 to 125 (≈ 15.9 to 254 µM) | 7.8 to 125 (≈ 15.9 to 254 µM) | 7.8 to 125 (≈ 15.9 to 254 µM) | 7.8 to 125 (≈ 15.9 to 254 µM) | 7.8 to 125 (≈ 15.9 to 254 µM) | 7.8 to 125 (≈ 15.9 to 254 µM) | 7.8 to 125 (≈ 15.9 to 254 µM) | 15.1 | 12.2 | 10.8 | 14.3 |
| Cc1c2ccccc2nc2c1c(C(F)(F)F)nn2CC(=O)N1CCCCC1 | 7.8 to 125 (≈ 20.7 to 332 µM) | 7.8 to 125 (≈ 20.7 to 332 µM) | 7.8 to 125 (≈ 20.7 to 332 µM) | 7.8 to 125 (≈ 20.7 to 332 µM) | 7.8 to 125 (≈ 20.7 to 332 µM) | 7.8 to 125 (≈ 20.7 to 332 µM) | 7.8 to 125 (≈ 20.7 to 332 µM) | 33.9 | 36.6 | 32.5 | 25.4 |
| Cc1c2ccccc2nc2c1c(C(F)(F)F)nn2CC(=O)N1CCN(CCO)CC1 | 7.8 to 125 (≈ 18.5 to 297 µM) | 7.8 to 125 (≈ 18.5 to 297 µM) | 7.8 to 125 (≈ 18.5 to 297 µM) | 7.8 to 125 (≈ 18.5 to 297 µM) | 7.8 to 125 (≈ 18.5 to 297 µM) | 7.8 to 125 (≈ 18.5 to 297 µM) | 7.8 to 125 (≈ 18.5 to 297 µM) | 28.2 | 30.2 | 31.1 | 19.8 |
| Cc1nn(CC(=O)NCc2ccco2)c2nc3ccccc3c(C)c12 | 7.8 to 125 (≈ 23.3 to 374 µM) | 7.8 to 125 (≈ 23.3 to 374 µM) | 7.8 to 125 (≈ 23.3 to 374 µM) | 7.8 to 125 (≈ 23.3 to 374 µM) | 7.8 to 125 (≈ 23.3 to 374 µM) | 7.8 to 125 (≈ 23.3 to 374 µM) | 7.8 to 125 (≈ 23.3 to 374 µM) | 14.4 | 13.2 | 14.9 | 15.6 |
| CNC(=O)Cn1nc(C(F)(F)F)c2c(C)c3ccccc3nc21 | 7.8 to 125 (≈ 24.2 to 388 µM) | 7.8 to 125 (≈ 24.2 to 388 µM) | 7.8 to 125 (≈ 24.2 to 388 µM) | 7.8 to 125 (≈ 24.2 to 388 µM) | 7.8 to 125 (≈ 24.2 to 388 µM) | 7.8 to 125 (≈ 24.2 to 388 µM) | 7.8 to 125 (≈ 24.2 to 388 µM) | 17.2 | 18.9 | 11.3 | 12.8 |
| O=C(Cn1nc(C(F)(F)F)c2c(-c3ccccc3)c3ccccc3nc21)NCc1ccco1 | 7.8 to 125 (≈ 17.3 to 278 µM) | 7.8 to 125 (≈ 17.3 to 278 µM) | 7.8 to 125 (≈ 17.3 to 278 µM) | 7.8 to 125 (≈ 17.3 to 278 µM) | 7.8 to 125 (≈ 17.3 to 278 µM) | 7.8 to 125 (≈ 17.3 to 278 µM) | 7.8 to 125 (≈ 17.3 to 278 µM) | 27.2 | 26.8 | 22.4 | 28.1 |
| CCNC(=O)Cn1nc(C(F)(F)F)c2c(-c3ccccc3)c3ccccc3nc21 | 7.8 to 125 (≈ 19.6 to 314 µM) | 7.8 to 125 (≈ 19.6 to 314 µM) | 7.8 to 125 (≈ 19.6 to 314 µM) | 7.8 to 125 (≈ 19.6 to 314 µM) | 7.8 to 125 (≈ 19.6 to 314 µM) | 7.8 to 125 (≈ 19.6 to 314 µM) | 7.8 to 125 (≈ 19.6 to 314 µM) | 26.5 | 22.2 | 29.5 | 18.9 |
| O=C(Cn1nc(C(F)(F)F)c2c(-c3ccccc3)c3ccccc3nc21)NC1CCCCC1 | 7.8 to 125 (≈ 17.2 to 276 µM) | 7.8 to 125 (≈ 17.2 to 276 µM) | 7.8 to 125 (≈ 17.2 to 276 µM) | 7.8 to 125 (≈ 17.2 to 276 µM) | 7.8 to 125 (≈ 17.2 to 276 µM) | 7.8 to 125 (≈ 17.2 to 276 µM) | 7.8 to 125 (≈ 17.2 to 276 µM) | 29.7 | 30.2 | 25.9 | 32.1 |
